Test results taken from publication PMC11292009, “Mapping protein binding sites by photoreactive fragment pharmacophores” (Communications Chemistry, 2024).
Values joined by “and” are separate entries in the source; they are usually repeats but may differ in a detail not shown here. Identical values can stand only once.

Assays:
[1] = tested on: MV4-11 cells; test: CellTiter-Blue cell viability assay, MV4-11; format: cell-based; conditions: Homo sapiens, MV4-11, 72 h
Procedure: MV4-11 and MOLM-13 cell lines were purchased from DSMZ (Braunschweig, Germany), and grown at 37 °C and 5% CO2 in RPMI 1640 medium (Gibco^TM, Thermo Fisher Scientific). Media were supplemented with 10% fetal calf serum (FCS), 10 U/mL penicillin, 10 µg/mL streptomycin and 2 mM L-glutamine (all Gibco^TM, Thermo Fisher Scientific).
To determine the IC50 of the selected compounds on the cell lines, CellTiter-Blue® cell viability assay (Promega) was performed. For this, cells were seeded in 96-well flat bottom plates at a cell density of 10,000 cells/well. Cells were treated in triplicates with the compound of interest at various concentrations or with 10 μM Bortezomib (S1013; Selleck Chemicals, Houston, TX, USA) as a positive control. Cell viability of treated cell lines was measured using CellTiter-Blue® after 72 h incubation. Plates were measured using a GloMax® plate reader (Promega) and IC50 values were determined by non-linear regression using the GraphPad Prism 9.1.1 (GraphPad Software, Inc.) and the data are reported as mean values ± SEM.

[2] = target: T1, STAT5B NTD (Homo sapiens, UniProt P51692); test: Microscale thermophoresis (MST), without irradiation; format: binding; conditions: for ΔFnorm: Fnorm - Unbound value, Php097 concentration [log; for Fnorm: MST raw data, PhP097 concentration [log
T1 construct: His-SUMO (N, cleaved yes); made in house; host or cells: E. coli BL21 RILP
T1 sequence (P51692 1-123): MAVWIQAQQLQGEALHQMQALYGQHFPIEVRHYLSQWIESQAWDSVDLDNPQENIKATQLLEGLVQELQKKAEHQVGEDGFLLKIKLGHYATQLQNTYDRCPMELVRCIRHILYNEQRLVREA
Procedure: For the microscale thermophoresis (MST) studies, we prepared 16 two-fold serial dilutions of compounds starting from 500 μM. Titration series were prepared that contained 10 μL of compounds’ solutions of varying concentrations and 10 μL RED-NHS 2nd Generation labeled STAT5B NTD with a concentration of 168 nM for compound PhP097, and a concentration of 84 nM for compound PhP065. Final buffer composition included 1X PBS containing 0.5% DMSO. All measurements were taken in Premium Coated Capillaries on a Monolith NT.115 instrument (NanoTemper Technologies, Munich, Germany) using 80% infrared laser power for compound PhP097, 60% infrared laser power for compound PhP065, and an LED excitation source with λ = 650 nm at a temperature of 25 °C. Results were expressed as the mean of two separate experiments, with three technical replicates each. GraphPad Prism 9.5.1 software was used to fit the data and to determine the KD values.

[3] = µM] -0.0102833, runs/replicates

CC1(CCC(=O)NCCc2csc(-c3ccccc3)n2)N=N1 [PhP097, N1=NC1(C)CCC(=O)NCCc2csc(n2)-c3ccccc3]
IC50 [1]: 56.6 µM
ΔFnorm ([2]; µM] 0.591766, runs/replicates): 5.764 ‰ and 7.778 ‰ and 6.699 ‰ and -1.199 ‰ and -1.302 ‰ and -4.005 ‰
ΔFnorm ([2]; µM] 0.89279, runs/replicates): -7.395 ‰ and -5.5397 ‰ and -5.711 ‰ and 0.2163 ‰ and 4.053 ‰ and 0.9615 ‰
ΔFnorm ([2]; µM] 1.19382, runs/replicates): -4.091 ‰ and -1.8497 ‰ and -1.165 ‰ and -5.318 ‰ and -5.614 ‰ and -5.274 ‰
ΔFnorm ([2]; µM] 1.49485, runs/replicates): -4.445 ‰ and -4.535 ‰ and -5.873 ‰ and -8.126 ‰ and -4.727 ‰ and -7.108 ‰
ΔFnorm ([2]; µM] 1.79588, runs/replicates): -8.587 ‰ and -6.363 ‰ and -6.457 ‰ and -11.6433 ‰ and -8.368 ‰ and -12.1062 ‰
ΔFnorm ([2]; µM] 2.09691, runs/replicates): -14.77 ‰ and -11.6203 ‰ and -10.8651 ‰ and -10.9408 ‰ and -5.699 ‰ and -12.7461 ‰
ΔFnorm ([2]; µM] 2.39794, runs/replicates): -1.7884 ‰ and 0.2047 ‰ and 0.7983 ‰ and -10.6185 ‰ and -13.0284 ‰ and -12.5258 ‰
ΔFnorm [2, 3]: 4.6455 ‰ and 5.66 ‰ and 7.637 ‰ and -9.481 ‰ and -8.884 ‰ and -7.417 ‰
ΔFnorm ([2]; µM] -0.311313, runs/replicates): -5.603 ‰ and -3.243 ‰ and -1.459 ‰ and 3.271 ‰ and 2.052 ‰ and 1.015 ‰
ΔFnorm ([2]; µM] -0.913284, runs/replicates): 4.1952 ‰ and 9.04 ‰ and 7.8226 ‰ and -0.03038 ‰ and -2.726 ‰ and -0.9924 ‰
ΔFnorm ([2]; µM] -1.5157, runs/replicates): 0.7011 ‰ and -0.01526 ‰ and 1.427 ‰ and -0.3532 ‰
Fnorm ([2]; µM] 0.591766, runs/replicates): 720.204 ‰ and 719.528 ‰ and 720.009 ‰ and 710.951 ‰ and 712.028 ‰ and 710.045 ‰
Fnorm ([2]; µM] 0.89279, runs/replicates): 707.045 ‰ and 706.21 ‰ and 707.599 ‰ and 712.366 ‰ and 717.383 ‰ and 715.011 ‰
Fnorm [2, 3]: 719.086 ‰ and 717.41 ‰ and 720.947 ‰ and 702.669 ‰ and 704.446 ‰ and 706.633 ‰
Fnorm ([2]; µM] -0.311313, runs/replicates): 708.837 ‰ and 708.507 ‰ and 711.851 ‰ and 715.421 ‰ and 715.382 ‰ and 715.065 ‰
Fnorm ([2]; µM] -0.913284, runs/replicates): 718.635 ‰ and 720.79 ‰ and 721.133 ‰ and 712.12 ‰ and 710.604 ‰ and 713.058 ‰
Fnorm ([2]; µM] -1.5157, runs/replicates): 715.141 ‰ and 711.735 ‰ and 714.737 ‰ and 711.797 ‰ and 713.155 ‰ and 719.464 ‰
Kd ([2]; MST, without irradiation, 25 °C): 18.1 µM
